One molecule from patent publication US11253531B2, “Lipid supplements for reducing nerve action potentials” (Nutritional Therapeutics, Inc., priority 2011, dated 2022) can be followed below.

This assay concerns dorsal root ganglia neurons. Briefly: Field stimulation of cultured neurons, membrane potential by di8ANEPPS fluorescence. The format is cell-based, rat. The note with it: caffeine added to NTFL.

From the text: The procedure below details a study performed on one type of cultured nerve cells, namely dorsal root ganglia neurons, using a 10% solution of glycerolphospholipids in combination with inulin (NTFL).
The cultured cells were then exposed to an aqueous solution of the lipid supplement comprising glycerolphospholipids in combination with inulin, referred to as NTFL nanomicelles.
This was used as an indicator of membrane potential instead of microelectrodes because patching these neurons or the use of microelectrodes can be difficult in these studies in the presence of the NTFL nanomicellles solutions.
To perform the comparison, electrodes were applied to the bath containing the cultured neurons and field stimulation was provided by passed current through the bath. This caused depolarization of the nerve cells resulting in fluorescence of the di8ANEPPS.

As for `Cn1c(=O)c2c(ncn2C)n(C)c1=O` [caffeine], the “effect on nerve conduction” value is recorded as “did not appear to have an effect on nerve conduction”.
